Assay results taken from patent publication US20100120703A1, “COMPOSITIONS AND METHODS FOR TREATING CANCER” (priority 2007, published 2010).

What was measured:
[1] = system: Clone 9 cells; assay: Neutral red cell viability assay; format: cell-based, rat; conditions: SIN up to 1,000 μM, 72 hours
Description: The neutral red (NR) cytotoxicity assay is a chemosensitivity assay for measuring cell survival/viability, based on the ability of viable cells to incorporate and bind neutral red, a supravital dye. NR is a weak cationic dye that readily penetrates cell membranes by non-ionic diffusion, accumulating intracellularly in lysosomes, where it binds with anionic sites in the lysosomal matrix. Alterations of the cell surface or the sensitive lysosomal membrane lead to lysosomal fragility and other changes that gradually become irreversible. Such changes brought about by the action of xenobiotics result in a decreased uptake and binding of NR. It is thus possible to distinguish between viable, damaged, or dead cells. (Babich, H et al, 1990)
Three different cell lines HepG2, WRL-68 and Clone 9 cell lines were used in the experiment. HepG2 is a human hepatoblastoma cell line. It is a well known cell model in anti-HCC studies (Alshatwi A A, et al, 2006). WRL-68 is a human normal liver embryo cell line that has a morphologic structure similar to hepatocytes and hepatic primary cultures (Gutierrez-Ruiz, et al, 1994). This cell line was used as the control. Clone 9 is the rat Sprague Dawley (SD) liver normal cell line. […]
HepG2, WRL-68 and Clone 9 cells were grown in complete culture medium (RPMI or DMEM), trypsinized and washed. […] The color was measured at OD540nm.

[2] = system: HepG2 cells; assay: Cell cycle analysis by flow cytometry (PI); format: cell-based, human
Description: Flow Cytometery is a rapid and quantitative method for measuring certain physical and chemical characteristics of cells or particles as they travel in suspension through a sensor. When the cell is labeled with propidium iodide (PI), the DNA content can be measured which is used to determine the stage of the cell cycle. When cell cycles are obtained, a cell cycle map can be recorded.
HepG2 cells were trypsinized, washed and seeded into […] culture plates in complete RPMI medium. After 24 hours of pre-incubation, different concentrations (250 μM and 500 μM) of SIN were added to the culture plates. The complete RPMI medium was added to one plate containing control cells. After different periods of incubation with SIN, cells were harvested, the medium was removed from the culture plate and the plate was washed twice with 2 ml of 1×PBS buffer. All of the solutions were collected, and the cells were trypsinized and collected. The whole solution was centrifuged at 1,000 rpm for 3 minutes. The supernatant was removed and the cell pellet was resuspended in 1 ml 1×PBS buffer for washing. […]
The cell pellet was resuspended in 1 ml of 70% ethanol and 0.1 ml of 1×PBS buffer. […] DNA content was analyzed using an FACScan Flow cytometry with sufficient Sheath Fluid. The results were analyzed by the FCS express software produced by the De Novo Software Company.

[3] = system: Sprague Dawley (SD) rats; assay: Serum AST/ALT assay, promotion stage; format: in vivo, rat; conditions: promotion stage (FIG. 10), 15 mg/kg oral daily
Description: In the promotion stage experiment, rats in the negative control group received weekly intraperitoneal (i.p.) injection of DMSO for the first 2 weeks and then Corn Oil for the rest of the schedule. Rats in the positive control and SIN-treatment groups both received weekly intraperitoneal (i.p.) injection of the carcinogen DEN for the first 2 weeks and then promoter, Carbon Tetrachloride (CCl4) for the rest of the schedule. Two weeks of fasting were inserted between the initiator carcinogen treatment and the promoter CCl4 treatment. During the fasting period of 2 weeks, rats were fasted for 5 days, followed by a 2 day feeding, and another 5 days of fasting. Water was given ad libitum. Negative and positive control groups received oral treatment of water once a day after fasting. Sinigrin with dosage 15 mg/kg was administered orally to the treatment group daily for 28 weeks after fasting. […]
The serum AST activity assay was measured by a Stanbio AST (UV-Rate) kit. […] Absorbance was measured at OD 340 nm. After incubation for 1 minute, a reading was taken and the reading at this point was counted as time zero. Readings were then taken at 30 second interval for 3 minutes. The change of absorbance per minute was calculated and the AST activity was calculated by the formula
The ALT assay was measured by a Stanbio […]. […]

C=CC/C(=N/OS(=O)(=O)[O-])S[C@@H]1OC(CO)[C@@H](O)C(O)C1O.[K+] (some centres unmarked) [SIN, sinigrin]
cell viability of Clone 9 cells (healthy liver cells) [1]: no decrease in cell viability was observed
cells arrested in sub G1 phase vs untreated cells ([2]; 0.5 mM SIN, 96 hours): the increase of the cells arrested in sub G1 phase becomes very obvious
cell cycle effect in HepG2 cells ([2]; SIN treatment, 24-96 hours): G0/G1 phase arrest
rat serum ALT level [3]: levels similar to those in the negative control
rat serum AST level [3]: levels similar to those in the negative control
